Laboratory results from paper PMC5367682, “Fragment library screening identifies hits that bind to the non-catalytic surface of Pseudomonas aeruginosa DsbA1” (PLoS ONE, 2017).

The molecules below were run against T1, PaDsbA1 (Pseudomonas aeruginosa, UniProt P0C2B2) (assay: […]-HSQC NMR titration, CSP fitted to one-site model).
T1 construct: gene dsbA; N-terminal His6 tag cut with TEV; E. coli BL21(DE3) Gold; 15N-labelled for NMR, oxidized; NMR structure residues 3-192
Type: binding

T1 sequence (P0C2B2 22-211): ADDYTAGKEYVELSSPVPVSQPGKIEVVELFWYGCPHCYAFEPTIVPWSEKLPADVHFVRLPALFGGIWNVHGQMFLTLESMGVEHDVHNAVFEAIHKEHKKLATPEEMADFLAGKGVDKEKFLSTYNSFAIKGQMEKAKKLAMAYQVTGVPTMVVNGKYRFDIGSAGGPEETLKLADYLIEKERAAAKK

Structure (SMILES)	Kd [µM]
Cc1ccccc1CSc1nncn1N [compound 1, Fragment 1]	900
Cc1cc(C(=O)Nc2cccc(O)c2)c(C)o1 [compound 2, Fragment 2]	1600 ± 200
Oc1nc2ccccc2s1 [compound 3, Fragment 3]	2100 ± 300
Nc1ccc(-c2nc3ccccc3[nH]2)cc1 [compound 4, Fragment 4]	2500 ± 400
NNC(=O)c1cc(C2CC2)n[nH]1 [compound 5, Fragment 5]	2700 ± 700
COc1ccc(-c2nc(N)sc2C)cc1 [compound 6, Fragment 6]	3900 ± 200
CNCc1ccc(-c2cccc(Cl)c2)o1 [compound 7, Fragment 7]	4300 ± 1000
Nc1cccc(C(=O)Nc2ccccc2Cl)c1 [compound 8, Fragment 8]	4400 ± 5000

Each molecule was assayed against T2, EcDsbA (Escherichia coli, UniProt P0AEG4) (assay: […]-HSQC NMR after STD NMR).
T2 construct: gene dsbA; 15N-labelled for HSQC
Type: binding

T2 sequence (P0AEG4 20-208): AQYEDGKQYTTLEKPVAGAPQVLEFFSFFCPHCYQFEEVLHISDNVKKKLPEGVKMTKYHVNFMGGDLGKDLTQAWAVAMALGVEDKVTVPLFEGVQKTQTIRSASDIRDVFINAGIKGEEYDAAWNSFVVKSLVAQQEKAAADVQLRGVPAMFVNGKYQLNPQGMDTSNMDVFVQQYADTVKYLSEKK

Structure (SMILES)	Kd [µM]
COc1ccc(-c2nc(N)sc2C)cc1 [compound 6, Fragment 6]	> 5000
